Experimental findings from patent publication US4879296A, “Xanthine derivatives” (Burroughs Wellcome co., priority 1985, dated 1989) are described below.

Series [1] has as its target T1, ADO-induced prolongation of the atrio-to-His bundle conduction time (Cavia porcellus, UniProt P47745).
T1 construct: isolated, perfused guinea-pig heart preparations; from tissue; host or cells: isolated, perfused guinea-pig heart
T1 sequence (P47745 1-326): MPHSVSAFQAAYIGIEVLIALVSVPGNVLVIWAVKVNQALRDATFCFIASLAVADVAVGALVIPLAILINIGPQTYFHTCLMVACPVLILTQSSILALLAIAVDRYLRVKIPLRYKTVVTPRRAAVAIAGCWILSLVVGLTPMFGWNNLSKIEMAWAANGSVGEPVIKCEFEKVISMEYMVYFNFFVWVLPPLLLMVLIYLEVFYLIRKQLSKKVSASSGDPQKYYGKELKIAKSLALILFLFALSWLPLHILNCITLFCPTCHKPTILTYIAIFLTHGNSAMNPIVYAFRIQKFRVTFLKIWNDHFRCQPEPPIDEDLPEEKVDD
Kind of series: Inhibition of ADO-induced prolongation of the atrio-to-His bundle conduction time in isolated, perfused guinea-pig heart. Conditions: five animals; 5 μm ADO infusion; Eadie-Scatchard plot of %INH; read-out: mean Kd(50). The method, then:
The ability of (E)-4-(1,2,3,6-tetrahydro-1,3-dimethyl-2,6-dioxo-9H-purin-8-yl)cinnamic acid to inhibit ADO-induced prolongation of the atrio-to-His bundle conduction time and, thus, its potential for the treatment of cardiac disorders including heart block, was evaluated in isolated, perfused guinea-pig heart preparations.
Male and female guinea-pigs were sacrificed by a blow to the head, and their hearts were quickly removed. The heart was then hung on a retro-grade aortic infusion apparatus. […]
Pacing was initiated at a rate that ensured one to one capture and later was set to 2-3 Hz. […] Two antagonists were evaluated per guinea-pig. […]
A.V. conduction times were measured from the HBE and LAE. […] Differences were then calculated by subtracting the control interval in question. Percentage ADO prolongation inhibition (%INH) was calculated by subtracting the A-A difference from the ADO difference, dividing by ADO difference, and multiplying by 100, thus %INH=(ADO diff.-ant. diff.)/ADO diff.*100.
The Kd(50) was then evaluated by an Fadie-Scatchard plot, where (%INH)/(antagonist conc.) was plotted on the ordinate and %INH on the abscissa. […]

A short description of series [2]: Standard LD50 test, intraperitoneal, mice. The note with it: mouse, in vivo, ip. The method, then: The toxicity of a representative number of compounds of the present invention was determined by using the standard LD50 test.
For series [3], the target named is T2, purine receptors (Cavia porcellus, UniProt P47745).
T2 construct: Ilea were removed from sacrificed guinea pigs and placed in organ baths; from tissue; host or cells: guinea pig ileum
T2 sequence (P47745 1-326): T1 sequence (P47745 1-326)
Kind of series: Purine receptor antagonism in guinea pig ileum twitch test (agonist 2-chloroadenosine, Schild regression). The note with it: for slope (Schild regression): value in brackets beside pA2, guinea pig ileum; for Kb: vs 2-chloroadenosine, Schild regression, may be considered the pKb, read-out: pA2 Guinea pig ileum (converted). The method, then: Accordingly, a representative number of compounds of the present invention were tested for their ability to antagonise the purine receptors using the guinea pig ileum test system.
Ilea were removed from sacrificed guinea pigs and placed in organ baths containing oxygenated Krebs-Henseleit buffer. After equilibration, the ilea were stimulated to contract (twitch contraction) using an electrical field-stimulus of 0.1 Hz, 0.05 ms duration and maximal voltage. Under these conditions, the twitch contraction results from the release of acetylcholine.
Concentration response curves to the purine agonist, 2-chloroadenosine, were determined first in the absence and then in the presence of multiple concentrations of the compounds of the invention. One concentration of each compound was used per tissue. Quantification of purine receptor antagonism was accomplished using the Schild regression technique, i.e. plots of log (dose-ratio-1) vs log compound concentration, and the pA2 determined by regression of the data points to the x-intercept, where log (dose-ratio-1) is zero.

Take `Cn1c(=O)c2nc(-c3ccc(/C=C/C(=O)O)cc3)[nH]c2n(C)c1=O` [Example 1, (E)-4-(1,2,3,6-tetrahydro-1,3,-dimethyl-2,6-dioxo-9H-purin-8-yl)cinnamic acid]: the Kd in series [1] came to 190 nM. Also, the LD50 in series [2] was greater than 500 mg/kg.

In the case of `CCCn1c(=O)c2nc(-c3ccc(/C=C/C(=O)O)cc3)[nH]c2n(CCC)c1=O` [Example 6, (E)-4-(1,2,3,6-tetrahydro-2,6-dioxo-1,3-dipropyl-9H-purin-8-yl)cinnamic acid], in series [3], the “slope (Schild regression)” value is 0.9 and the Kb is 20 nM. The same molecule returned an LD50 in series [2] greater than 500 mg/kg.

`CC(C)Cn1c(=O)[nH]c(=O)c2nc(-c3ccc(/C=C/C(=O)O)cc3)[nH]c21` [Example 10, (E)-4-(1,2,3,6-tetrahydro-3-isobutyl-2,6-dioxo-9H-purin-8-yl)cinnamic acid] had an LD50 in series [2] greater than 100 mg/kg.

With `CCCn1c(=O)n(C)c(=O)c2nc(-c3ccc(/C=C/C(=O)O)cc3)[nH]c21` [Example 11, (E)-4-(1,2,3,6-tetrahydro-1-methyl-2,6-dioxo-3-propyl-9H-purin-8-yl)cinnamic acid], in series [3], the “slope (Schild regression)” value came to 1.0 and the Kb was 100 nM.

The molecule `CC(C)Cn1c(=O)n(C)c(=O)c2nc(-c3ccc(/C=C/C(=O)O)cc3)[nH]c21` [Example 12, (E)-4-(1,2,3,6-tetrahydro-3-isobutyl-1-methyl-2,6-dioxo-9H-purin-8-yl)cinnamic acid] gave an LD50 in series [2] greater than 100 mg/kg.

For `CCCCn1c(=O)c2nc(-c3ccc(/C=C/C(=O)O)cc3)[nH]c2n(CCCC)c1=O` [Example 14, (E)-4-(1,3-dibutyl-1,2,3,6-tetrahydro-2,6-dioxo-9H-purin-8-yl)cinnamic acid], in series [3], the “slope (Schild regression)” value is given as 1.0 and the Kb was 31.6 nM. For the same molecule, the LD50 in series [2] was greater than 100 mg/kg.

With `O=C(O)/C=C/c1ccc(-c2nc3c(=O)n(Cc4ccccc4)c(=O)n(Cc4ccccc4)c3[nH]2)cc1` [Example 15, (E)-4-(1,3-dibenzyl-1,2,3,6-tetrahydro-2,6-dioxo-9H-purin-8-yl)cinnamic acid], in series [3], the “slope (Schild regression)” value came to 0.9 and the Kb was 79.4 nM.

In series [2], `CCCCn1c(=O)n(C)c(=O)c2nc(-c3ccc(/C=C/C(=O)O)cc3)[nH]c21` [Example 16, (E)-4-(3-butyl-1,2,3,6-tetrahydro-1-methyl-2,6-dioxo-9H-purin-8-yl)cinnamic acid] showed an LD50 greater than 100 mg/kg.

For `Cn1c(=O)c2nc(-c3ccc(/C=C/C(=O)O)cc3)[nH]c2n(Cc2ccccc2)c1=O` [Example 18, (E)-4-(3-benzyl-1,2,3,6-tetrahydro-1-methyl-2,6-dioxo-9H-purin-8-yl)cinnamic acid], in series [3], the “slope (Schild regression)” value came to 0.9 and the Kb was 79.4 nM. In series [2], this molecule showed an LD50 greater than 100 mg/kg.

For `CC(C)Cn1c(=O)c2nc(-c3ccc(/C=C/C(=O)O)cc3)[nH]c2n(CC(C)C)c1=O` [Example 19, (E)-4-(1,2,3,6-tetrahydro-1,3-diisobutyl-2,6-dioxo-9H-purin-8-yl)cinnamic acid], in series [3], the “slope (Schild regression)” value is listed as 1.0 and the Kb is 35.5 nM.

For `Cn1c(=O)c2[nH]cnc2n(C)c1=O` [THEOPHYLLINE, 1,3-dimethylxanthine, reference compound], the “slope (Schild regression)” value in series [3] stood at 1.1.
